Series [1] is described as follows: Modulation of gamma secretase in CHO-2B7 cells assessed as reduction in amyloid beta 42 level after 5 hrs by MSD ELISA. The series is classed as cell-based. The note with it: Cricetulus griseus, CHO-2B7, 5 h. Background: In an ELISA, binding on a coated surface is turned into a signal by an enzyme label.
The next series deals with Liver microsomes. As to the kind of experiment: Metabolic stability in human liver microsomes at 1 uM after 60 mins by LC/MS/MS analysis. The note with it: 1 h. In general terms: Microsomes from liver hold many membrane-bound enzymes, among them those of drug oxidation.
Series [2] in a line: Modulation of gamma secretase in CHO-2B7 cells assessed as reduction in amyloid beta 40 level after 5 hrs by MSD ELISA. The series is classed as cell-based. The note with it: Cricetulus griseus, CHO-2B7, 5 h.

SMILES strings stand for the structures.

In general, IC50 refers to the concentration that gives 50% inhibition. Regarding `CC(C)[C@@H](OC(=O)N1CCC1)[C@H]1C[C@@H](C)[C@H]2[C@H](O1)[C@H](O)[C@@]1(C)[C@@H]3CC[C@H]4C(C)(C)[C@@H](O[C@H]5CN(C(=O)CCC(=O)O)CCO5)CC[C@@]45C[C@@]35CC[C@]21C`, the figures for the IC50 in series [1] and in series [2] were 0.28 µM and 7.2 µM, respectively. In addition, the Stability entry in the series on Liver microsomes is “Stable”.
Taken in the same sequence, the figures for `COCCN1CCO[C@@H](O[C@H]2CC[C@]34C[C@]35CC[C@]3(C)[C@@H]6[C@H](O[C@@H]([C@H](OC(=O)N7CCC7)C(C)C)C[C@H]6C)[C@H](O)[C@@]3(C)[C@@H]5CC[C@H]4C2(C)C)C1` were 0.53 µM, 5.2 µM and “Stable”.
Taken in the same sequence, the figures for `CCO[C@@H]([C@H]1C[C@@H](C)[C@H]2[C@H](O1)[C@H](O)[C@@]1(C)[C@@H]3CC[C@H]4C(C)(C)[C@@H](OC(=O)N5CC[C@H](C(=O)O)C5)CC[C@@]45C[C@@]35CC[C@]21C)C(C)(C)O` were 0.4 µM, 17 µM and “Stable”.
For `CC(C)[C@@H](OC(=O)N1CCC1)[C@H]1C[C@@H](C)[C@H]2[C@H](O1)[C@H](O)[C@@]1(C)[C@@H]3CC[C@H]4C(C)(C)[C@@H](OC(=O)NCC(=O)O)CC[C@@]45C[C@@]35CC[C@]21C`, the half-inhibitory concentration (IC50) was 0.42 µM in series [1] and 7.2 µM in series [2]. Moreover, the Stability result in the series on Liver microsomes is given as “Stable”.
Taken in the same sequence, the figures for `CC(C)[C@@H](OC(=O)N1CCC1)[C@H]1C[C@@H](C)[C@H]2[C@H](O1)[C@H](O)[C@@]1(C)[C@@H]3CC[C@H]4C(C)(C)[C@@H](OC(=O)N[C@H]5CCNC5=O)CC[C@@]45C[C@@]35CC[C@]21C` were 0.4 µM, 1 µM and “Stable”.
Taken in the same sequence, the figures for `CCO[C@@H]([C@H]1C[C@@H](C)[C@H]2[C@H](O1)[C@H](O)[C@@]1(C)[C@@H]3CC[C@H]4C(C)(C)[C@@H](OC(=O)N[C@@H]5CCNC5=O)CC[C@@]45C[C@@]35CC[C@]21C)C(C)(C)O` were 0.14 µM, 2.5 µM and “Stable”.
`CCO[C@@H]([C@H]1C[C@@H](C)[C@H]2[C@H](O1)[C@H](O)[C@@]1(C)[C@@H]3CC[C@H]4C(C)(C)[C@@H](O[C@H]5CN(CCN(C)C)CCO5)CC[C@@]45C[C@@]35CC[C@]21C)C(C)(C)O`: the IC50 in series [1] was determined as 0.13 µM; in series [2] it was 3.2 µM. In addition, the Stability result with Liver microsomes is on record as “Stable”.
Taken in the same sequence, the figures for `CCO[C@@H]([C@H]1C[C@@H](C)[C@H]2[C@H](O1)[C@H](O)[C@@]1(C)[C@@H]3CC[C@H]4C(C)(C)[C@@H](O[C@H]5CN(C(=O)C(C)C)CCO5)CC[C@@]45C[C@@]35CC[C@]21C)C(C)(C)O` were 0.17 µM, 3.5 µM and “Stable”.
`CC(C)[C@@H](OC(=O)N1CCC1)[C@H]1C[C@@H](C)[C@H]2[C@H](O1)[C@H](O)[C@@]1(C)[C@@H]3CC[C@H]4C(C)(C)[C@@H](OC(=O)NCCC(=O)O)CC[C@@]45C[C@@]35CC[C@]21C`: the IC50 in series [1] is 0.61 µM; in series [2] it was 13 µM. Besides, in the series on Liver microsomes, the Stability entry was “Stable”.
In the case of `CC(C)[C@@H](OC(=O)N1CCC1)[C@H]1C[C@@H](C)[C@H]2[C@H](O1)[C@H](O)[C@@]1(C)[C@@H]3CC[C@H]4C(C)(C)[C@@H](OC(=O)N5CC(NCC(F)(F)F)C5)CC[C@@]45C[C@@]35CC[C@]21C`, the values for the half-maximal inhibitory concentration (IC50) in series [1] and in series [2] were 0.75 µM and 11 µM, respectively. In addition, in the series with Liver microsomes, the Stability entry is “Stable”.
Taken in the same sequence, the figures for `CCO[C@@H]([C@H]1C[C@@H](C)[C@H]2[C@H](O1)[C@H](O)[C@@]1(C)[C@@H]3CC[C@H]4C(C)(C)[C@@H](O[C@H]5CN(CC(=O)N6CCOCC6)CCO5)CC[C@@]45C[C@@]35CC[C@]21C)C(C)(C)O` were 0.23 µM, 14 µM and “Stable”.
Taken in the same sequence, the figures for `CCO[C@@H]([C@H]1C[C@@H](C)[C@H]2[C@H](O1)[C@H](O)[C@@]1(C)[C@@H]3CC[C@H]4C(C)(C)[C@@H](O[C@H]5CN([C@@H]6CCOC6)CCO5)CC[C@@]45C[C@@]35CC[C@]21C)C(C)(C)O` were 0.18 µM, 3 µM and “Stable”.
On to `CC(C)[C@@H](OC(=O)N1CCC1)[C@H]1C[C@@H](C)[C@H]2[C@H](O1)[C@H](O)[C@@]1(C)[C@@H]3CC[C@H]4C(C)(C)[C@@H](OC(=O)N(C)CC(=O)O)CC[C@@]45C[C@@]35CC[C@]21C`, for which the half-inhibitory concentration (IC50) in series [1] worked out at 1.79 µM; in series [2] it was 0.48 µM. The Stability entry in the series on Liver microsomes is given as “Stable”.
Taken in the same sequence, the figures for `CCO[C@@H]([C@H]1C[C@@H](C)[C@H]2[C@H](O1)[C@H](O)[C@@]1(C)[C@@H]3CC[C@H]4C(C)(C)[C@@H](O[C@H]5CN(CC)CCO5)CC[C@@]45C[C@@]35CC[C@]21C)C(C)(C)O` were 0.21 µM, 2.7 µM and “Stable”.
On to `CCO[C@@H]([C@H]1C[C@@H](C)[C@H]2[C@H](O1)[C@H](O)[C@@]1(C)[C@@H]3CC[C@H]4C(C)(C)[C@@H](OC(=O)NC5COC5)CC[C@@]45C[C@@]35CC[C@]21C)C(C)(C)O`, for which the IC50 in series [1] stood at 0.14 µM; in series [2] it was 5 µM. Moreover, the Stability result in the series on Liver microsomes is reported as “Stable”.
Taken in the same sequence, the figures for `CC(C)[C@@H](OC(=O)N1CCC1)[C@H]1C[C@@H](C)[C@H]2[C@H](O1)[C@H](O)[C@@]1(C)[C@@H]3CC[C@H]4C(C)(C)[C@@H](OC(=O)N[C@@H]5CCCNC5=O)CC[C@@]45C[C@@]35CC[C@]21C` were 0.38 µM, 6.6 µM and “Stable”.
Taken in the same sequence, the figures for `CC(C)[C@@H](OC(=O)N1CCC1)[C@H]1C[C@@H](C)[C@H]2[C@H](O1)[C@H](O)[C@@]1(C)[C@@H]3CC[C@H]4C(C)(C)[C@@H](O[C@H]5CN([C@@H]6CCNC6=O)CCO5)CC[C@@]45C[C@@]35CC[C@]21C` were 0.49 µM, 15 µM and “Stable”.
Taken in the same sequence, the figures for `CC(C)[C@@H](OC(=O)N1CCC1)[C@H]1C[C@@H](C)[C@H]2[C@H](O1)[C@H](O)[C@@]1(C)[C@@H]3CC[C@H]4C(C)(C)[C@@H](OC(=O)NC5CN(C)C5)CC[C@@]45C[C@@]35CC[C@]21C` were 0.17 µM, 6.5 µM and “Stable”.
For the compound `CCO[C@@H]([C@H]1C[C@@H](C)[C@H]2[C@H](O1)[C@H](O)[C@@]1(C)[C@@H]3CC[C@H]4C(C)(C)[C@@H](OC(=O)NCCN(C)C)CC[C@@]45C[C@@]35CC[C@]21C)C(C)(C)O`, the figures for the concentration for half-maximal inhibition (IC50) in series [1] and in series [2] were 0.24 µM and 17 µM, respectively. In addition, in the series on Liver microsomes, the Stability result is recorded as “Stable”.
As for `CCO[C@@H]([C@H]1C[C@@H](C)[C@H]2[C@H](O1)[C@H](O)[C@@]1(C)[C@@H]3CC[C@H]4C(C)(C)[C@@H](O[C@H]5CN(CCO)CCO5)CC[C@@]45C[C@@]35CC[C@]21C)C(C)(C)O`, the IC50 was 0.26 µM in series [1] and 3.7 µM in series [2]. Moreover, the Stability result in the series on Liver microsomes was “Stable”.
For `CCO[C@@H]([C@H]1C[C@@H](C)[C@H]2[C@H](O1)[C@H](O)[C@@]1(C)[C@@H]3CC[C@H]4C(C)(C)[C@@H](O[C@H]5CN(CCF)CCO5)CC[C@@]45C[C@@]35CC[C@]21C)C(C)(C)O`, the concentration for half-maximal inhibition (IC50) in series [1] stood at 0.24 µM; in series [2] it was 4.7 µM. Also, the Stability result in the series on Liver microsomes is given as “Stable”.
For the compound `CC(C)[C@@H](OC(=O)N1CCC1)[C@H]1C[C@@H](C)[C@H]2[C@H](O1)[C@H](O)[C@@]1(C)[C@@H]3CC[C@H]4C(C)(C)[C@@H](O[C@H]5CN(C)CCO5)CC[C@@]45C[C@@]35CC[C@]21C`, the concentration for half-maximal inhibition (IC50) in series [1] came to 0.77 µM; in series [2] it was 8.4 µM. For the same compound, the Stability entry with Liver microsomes was “Stable”.
As to `CCO[C@@H]([C@H]1C[C@@H](C)[C@H]2[C@H](O1)[C@H](O)[C@@]1(C)[C@@H]3CC[C@H]4C(C)(C)[C@@H](O[C@H]5CN(C(=O)CC6CN(C)C6)CCO5)CC[C@@]45C[C@@]35CC[C@]21C)C(C)(C)O`, the results for the IC50 in series [1] and in series [2] were 0.15 µM and 3.1 µM, respectively. Further, the Stability result with Liver microsomes is “Stable”.
On to `C[C@@H]1C[C@H]([C@H](O)C(C)(C)O)O[C@H]2[C@H]1[C@@]1(C)CC[C@@]34C[C@@]35CC[C@H](OC(=O)N3CCC3)C(C)(C)[C@@H]5CC[C@H]4[C@]1(C)[C@H]2O`, for which, in series [1], the concentration for half-maximal inhibition (IC50) came out at 13 µM.
As for `C[C@@H]1C[C@H]([C@H](O)C(C)(C)O)O[C@H]2[C@H]1[C@@]1(C)CC[C@@]34C[C@@]35CC[C@H](OC(=O)NCCN(C)C)C(C)(C)[C@@H]5CC[C@H]4[C@]1(C)[C@H]2O`, in series [1], the 50% inhibitory concentration (IC50) is 5.7 µM.
Consider `C[C@@H]1C[C@H]([C@H](O)C(C)(C)O)O[C@H]2[C@H]1[C@@]1(C)CC[C@@]34C[C@@]35CC[C@H](OC(=O)NC3CN6CCC3CC6)C(C)(C)[C@@H]5CC[C@H]4[C@]1(C)[C@H]2O` (some centres undefined), for which, in series [1], the half-maximal inhibitory concentration (IC50) is 0.58 µM.
Take `CC(=O)O[C@@H]([C@H]1C[C@@H](C)[C@H]2[C@H](O1)[C@H](O)[C@@]1(C)[C@@H]3CC[C@H]4C(C)(C)[C@@H](O)CC[C@@]45C[C@@]35CC[C@]21C)C(C)(C)O`: the IC50 in series [1] was 0.6 µM.
On the same count and under the same terms, next, `C[C@@H]1C[C@H]([C@H](O)C(C)(C)O)O[C@H]2[C@H]1[C@@]1(C)CC[C@@]34C[C@@]35CC[C@H](OC(=O)N3CCOCC3)C(C)(C)[C@@H]5CC[C@H]4[C@]1(C)[C@H]2O`: 9 µM.

The values are drawn from ChEMBL document CHEMBL2203235, “Optimization of a natural product-based class of γ-secretase modulators” (J Med Chem, 2012).
